The source made the active and inactive calls. The rule behind the calls is not given here.
These molecules were tested on parental cell line counter screen, S1P1 agonist assay readout (assay: signal in parental cells, counter-screen for S1P1 agonist project (AID 467);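 note: agonist potency measured against forskolin stimulation plus an EC20 level of SEW2871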).
CCC1CCCCN1C(=O)CSc1nnc(-c2c[nH]c3ccccc23)o1 (stereo unspecified) was tested, and the EC50 was > 30 µM (inactive). With Cc1ccccc1OCC(=O)Nc1ccc(N2CCN(C(=O)C(C)C)CC2)c(Cl)c1 the EC50 was 26 µM (inactive). For CCOC(=O)C1CCN(c2ncnc3c2oc2ccccc23)CC1, the EC50 was 45.1 µM (inactive). For Cc1cc(C)n(-c2nc3ccccc3c(=O)n2OCCOc2ccccc2)n1, the EC50 was > 95.1 µM (inactive). COc1ccc(OCCCSc2ncccn2)cc1 was tested, and the EC50 was > 95.1 µM (inactive). For CC1=C(C(=O)OCc2ccc3c(c2)OCO3)C(c2ccccc2)NC(=O)N1 (stereo unspecified), the EC50 was > 10 µM (inactive). In the case of CCCc1cc(C(=O)Nc2sc3c(c2C#N)CCC3)no1, the EC50 is reported as > 95.1 µM (inactive). For CC1CCCC(C)N1C(=O)CN1CCN(c2nc(-c3ccc(F)cc3)cs2)CC1 (stereo unspecified), the EC50 was 21.7 µM (inactive). For CN(C)c1ccnc2sc3c(=O)n(Cc4ccccc4)cnc3c12, the EC50 was > 95.1 µM (inactive). In the case of Cc1ccc2[nH]c3c(N4CCN(Cc5ccc6c(c5)OCO6)CC4)ncnc3c2c1, the EC50 is reported as > 95.1 µM (inactive). In the case of Oc1ccc(N2CCN(c3ncnc4sc5c(c34)CCC5)CC2)cc1, the EC50 is reported as > 95.1 µM (inactive). In the case of CCOC(=O)N1CCC(NC(=O)C2CCCN(Cc3nc(-c4cccc(Cl)c4)oc3C)C2)CC1 (stereo unspecified), the EC50 is reported as > 95.1 µM (inactive). Cc1ccc(OCc2nc(-c3ccccc3)no2)c(C)c1 was tested, and the EC50 was > 95.1 µM (inactive). For CC(=O)Nc1ccccc1OCC(=O)c1cc(C)n(Cc2cccs2)c1C, the EC50 was 10.5 µM (inactive). With CCOC(=O)c1ccc(NC(=O)CCc2nc(-c3ccc(Cl)cc3)no2)cc1 the EC50 was > 95.1 µM (inactive). In the case of Cc1ccc(-n2c(C)cc(C(=O)CSc3nnnn3C)c2C)cc1, the EC50 is reported as > 95.1 µM (inactive). For CCN(CC)C(=O)CSC(=Nc1ccccc1F)NC#N, the EC50 was > 95.1 µM (inactive). With c1csc(CCNc2ncnc3sc4c(c23)CCC4)c1 the EC50 was 20.3 µM (inactive). For O=C(CCc1nc(-c2ccccc2F)no1)Nc1ccc(Oc2ccccc2)cc1, the EC50 was 6.94 µM. With O=C1CC(N2CCN(C/C=C/c3ccccc3)CC2)C(=O)N1CCc1ccccc1 (stereo unspecified) the EC50 was > 30 µM (inactive). In the case of COC(=O)c1ccc(C(c2c(N)n(CC(C)C)c(=O)[nH]c2=O)N2CCN(c3ccccc3)CC2)cc1 (stereo unspecified), the EC50 is reported as > 95.1 µM (inactive). COC(=O)c1ccc(CSc2nc3ccccc3c(=O)n2Cc2ccco2)o1 was tested, and the EC50 was > 95.1 µM (inactive). With Cc1cccc(N2CCN(C(=O)CSCc3c(C)noc3C)CC2)c1C the EC50 was > 30 µM (inactive). With CCOC(=O)/C=C/S(=O)(=O)c1ccc(NC(C)=O)cc1 the EC50 was 3.96 µM. In the case of O=C(NCc1ccco1)C1CCN(C(=O)c2cc3sccc3n2Cc2ccc(Cl)cc2)CC1, the EC50 is reported as 22.4 µM (inactive). With Cc1ccc(O)c(NC(=O)CCC2CCCCC2)c1 the EC50 was 50.1 µM (inactive). Cc1cc(-c2nnc(-c3ccccc3)c(-c3ccccc3)n2)c(C)o1 was tested, and the EC50 was 33.7 µM (inactive). Molecule Cc1nnc(SC(=O)N2c3ccccc3Sc3ccccc32)s1 has an EC50 of 3.42 µM. In the case of CC1=CC(C)(C)Nc2ccc(OC(=O)c3ccco3)cc21, the EC50 is reported as > 3 µM (inactive). For Cc1nn(Cc2ccc(Cl)c(Cl)c2)c(C)c1NC(=O)c1cc(C2CC2)on1, the EC50 was 41.2 µM (inactive). For Cc1ccc(S(=O)(=O)n2nc(C)c(Br)c2C)c(C)c1C, the EC50 was > 95.1 µM (inactive). For CCc1c(C)nc2ncnn2c1NCCc1ccc(OC)cc1, the EC50 was 40.9 µM (inactive). For COc1cccc(-c2csc(N3CCN(CC(=O)Nc4ccc5c(c4)OCO5)CC3)n2)c1, the EC50 was > 30 µM (inactive). For Cc1ccc(-c2nc(CSCC(=O)N3CCN(c4ccccn4)CC3)c(C)o2)cc1, the EC50 was > 30 µM (inactive). O=C(c1ccco1)N1CCN(c2ncnc3c2[nH]c2ccc(Br)cc23)CC1 was tested, and the EC50 was > 10 µM (inactive). For CCOC(=O)N1CCN(C(=O)C2CCN(c3ncnc4c3sc3cccc(F)c34)CC2)CC1, the EC50 was 24.2 µM (inactive). CC(=O)Nc1ccc(S(=O)(=O)N2CCN(CCCOc3cc(C)ccc3C)CC2)cc1 was tested, and the EC50 was > 30 µM (inactive). In the case of COc1ccccc1Oc1ccc2c(c1)C(=O)N(c1ccc(O)cc1)C2=O, the EC50 is reported as > 95.1 µM (inactive). CNc1oc(-c2ccc(OCc3ccccc3)cc2)nc1C#N was tested, and the EC50 was > 95.1 µM (inactive). For CC1CCc2nc(NC(=O)CSc3nc4ccccc4o3)sc2C1 (stereo unspecified), the EC50 was > 95.1 µM (inactive). Clc1ccc(-c2nc3nc4ccccc4nc3n2Cc2ccco2)cc1 was tested, and the EC50 was > 95.1 µM (inactive). CCCCn1ccnc1C(=O)c1cccc(S(=O)(=O)N2c3ccccc3CC2C)c1 (stereo unspecified) was tested, and the EC50 was > 95.1 µM (inactive). In the case of Cc1nc2sccn2c1-c1csc(NCc2ccccc2)n1, the EC50 is reported as 20 µM (inactive). COc1ccc(-c2nc(-c3ccc(NC(=O)c4ccncc4)cc3)no2)cc1OC was tested, and the EC50 was > 30 µM (inactive). In the case of CCc1ccc(S(=O)(=O)NCCc2csc(-c3ccccc3)n2)s1, the EC50 is reported as 33.4 µM (inactive). With Cc1ccccc1OCCCCc1c(C)n[nH]c1C the EC50 was > 30 µM (inactive). For CC(C)C(c1nnnn1Cc1ccccc1)N(Cc1ccco1)Cc1cccs1 (stereo unspecified), the EC50 was > 95.1 µM (inactive). With COc1ccccc1-n1nnnc1SCc1cc2c(cc1Br)OCO2 the EC50 was > 95.1 µM (inactive). In the case of O=C(Nc1ccc(S(=O)(=O)NCc2ccco2)cc1)c1ccc2ccccc2n1, the EC50 is reported as > 95.1 µM (inactive). CC(C)(C)SCCNS(=O)(=O)c1ccccc1 was tested, and the EC50 was > 95.1 µM (inactive). COc1ccc2ncn(-c3ccccc3)c2c1 was tested, and the EC50 was > 95.1 µM (inactive). In the case of CCc1ccc(-c2nc(CSCC(=O)N3CCN(c4ccccn4)CC3)c(C)o2)cc1, the EC50 is reported as 18.7 µM (inactive). For CN1/C(=C/C(=O)c2nc(S(C)(=O)=O)ncc2Cl)C(C)(C)c2ccccc21, the EC50 was 2.22 µM. O=S1(=O)C=C(Sc2nc3ccccc3s2)c2ccccc21 showed an EC50 of 1.26 µM. In the case of c1ccc(-c2ccc(-c3nc(-c4ccncc4)no3)cc2)cc1, the EC50 is reported as > 95.1 µM (inactive). For O=c1c(-c2ccc3c(c2)OCCO3)c(C(F)(F)F)oc2cc(O)cc(O)c12, the EC50 was 18.4 µM (inactive). Cc1ccc(S(=O)(=O)Nc2cccc3ncccc23)s1 was tested, and the EC50 was > 95.1 µM (inactive). For COc1ccc(-c2nc(-c3ccncc3)no2)cc1OC, the EC50 was > 95.1 µM (inactive). In the case of COc1ccccc1-c1nc(-c2ccc(Br)cc2)no1, the EC50 is reported as > 95.1 µM (inactive). With Cc1occc1C(=O)N1CCN(c2ccc(Cl)c(Cl)c2)CC1 the EC50 was 43.9 µM (inactive). For CCN(CC)S(=O)(=O)c1cc(C(=O)Nc2ccncc2)ccc1Cl, the EC50 was > 95.1 µM (inactive). COc1ccc(CCNc2ncnc3c2oc2ccccc23)cc1OC was tested, and the EC50 was 5.31 µM. With CCCN(C(=O)c1cccs1)c1nnc(-c2ccncc2)s1 the EC50 was > 95.1 µM (inactive). Oc1ccc(C2NCc3ccccc3-n3cccc32)cc1Cl (stereo unspecified) was tested, and the EC50 was > 30 µM (inactive). In the case of CCNc1nc2c(c(=O)n(C)c(=O)n2C)n1Cc1ccc(Cl)cc1, the EC50 is reported as > 95.1 µM (inactive). Fc1ccccc1COc1ccc(/C=N/n2cnnc2)cc1 was tested, and the EC50 was > 95.1 µM (inactive). For CCCc1cc(C(=O)N2CCN(C(c3ccccc3)c3ccccc3)CC2)no1, the EC50 was > 95.1 µM (inactive). For COC(=O)C1=CN(CCCN2CCCC2=O)C=C(C(=O)OC)C1c1ccccc1C(F)(F)F, the EC50 was > 95.1 µM (inactive). Cc1ccc(Cl)cc1N1CCN(C(=O)COc2ccc(S(=O)(=O)NC(C)C)cc2)CC1 was tested, and the EC50 was 30 µM (inactive). With O=C(c1cc(-c2ccc(O)cc2)on1)N1CCc2ccccc2C1 the EC50 was > 30 µM (inactive). In the case of FC(F)(F)c1ccc(N2CCN(c3cc(-c4ccccc4)nc4ncnn34)CC2)nc1, the EC50 is reported as > 95.1 µM (inactive). In the case of CCCC(=O)Nc1ccc(-c2nc3cc(C)ccc3o2)cc1, the EC50 is reported as > 95.1 µM (inactive). Cc1cc(C(=O)CSc2nnc(-c3ccccc3)n2-c2ccccc2)c(C)n1-c1ncn[nH]1 was tested, and the EC50 was > 95.1 µM (inactive). In the case of COc1ccccc1-c1cc(C(=O)Nc2ccccc2SC)no1, the EC50 is reported as > 95.1 µM (inactive). CCOC(=O)c1c(C)[nH]c(C(=O)C(C)OC(=O)c2cccc(OCc3c(C)noc3C)c2)c1C (stereo unspecified) was tested, and the EC50 was 20.1 µM (inactive). In the case of CCOC(=O)C1C(=O)C=C(c2ccc(OC)cc2)CC1c1ccco1 (stereo unspecified), the EC50 is reported as > 30 µM (inactive). With N/C(=N\c1nc2c(c(=O)[nH]1)CCCC2)Nc1ccccc1 the EC50 was > 95.1 µM (inactive). For O=C(Nc1ccc(N2CCOCC2)c(Cl)c1)c1cccc(F)c1, the EC50 was > 95.1 µM (inactive). Cc1cc2nc(-c3ccc(NC(=O)C(C)C)cc3)oc2cc1C was tested, and the EC50 was > 95.1 µM (inactive). CCC(=NCCOc1ccc(Cl)cc1)c1c(O)n(C)c(=O)n(C)c1=O was tested, and the EC50 was 18.9 µM (inactive). With CC(C)Oc1cc(O)c2c(=O)c(-c3ccc(O)cc3)coc2c1 the EC50 was 20.5 µM (inactive). Molecule Cc1ccc(C)c(-n2nnnc2Sc2nnnn2-c2ccccc2)c1 has an EC50 of 6.91 µM. CCOc1ccc(-c2nc(-c3ccccc3C)no2)cc1 was tested, and the EC50 was > 95.1 µM (inactive). O=C(Nc1nccs1)c1ccc(S(=O)(=O)NCC2CCCCC2)cc1 was tested, and the EC50 was > 30 µM (inactive). c1ccc2c(c1)CCN(c1ncnc3c1[nH]c1ccccc13)C2 showed an EC50 of 5.88 µM. With Cc1cccc(NC(=O)Nc2ccc(C#N)cc2)n1 the EC50 was 43 µM (inactive). For O=C(Nc1nc2c(s1)CCCC2)c1cc2n(n1)C(C(F)(F)F)CC(C1CC1)N2 (stereo unspecified), the EC50 was > 95.1 µM (inactive). CCCOc1ccc(S(=O)(=O)NCc2ccc(OC)cc2)cc1 was tested, and the EC50 was > 30 µM (inactive). With COc1ccc(S(=O)(=O)Cc2ccc(C(=O)N3CCN(c4ccc(Cl)cc4)CC3)o2)cc1 the EC50 was > 30 µM (inactive). In the case of COc1ccc(OC)c(-c2cc(C(=O)Nc3c(C)nn(Cc4ccc(Cl)cc4)c3C)no2)c1, the EC50 is reported as > 95.1 µM (inactive). Work on COc1ccc(-n2nnnc2S(=O)(=O)CC(=O)N2CCCCC2)cc1 yielded an EC50 of 2.35 µM. In the case of Cc1cc(C(=O)CC#N)c(C)n1-c1ccc(OC(F)F)cc1, the EC50 is reported as > 95.1 µM (inactive). In the case of CCc1nnc(NC(=O)C2CCCCC2)s1, the EC50 is reported as > 95.1 µM (inactive). With Cc1cccc(-c2nc(CSCC(=O)N3CCN(c4ccccn4)CC3)c(C)o2)c1 the EC50 was 31 µM (inactive). Work on CCc1cc(-c2[nH]ncc2-c2ccc3c(c2)OCO3)c(O)cc1O yielded an EC50 of 9.08 µM. In the case of Cc1ccc(-c2nc(COC(=O)c3c(C)noc3C)cs2)cc1, the EC50 is reported as > 95.1 µM (inactive). With Cc1ccc(-n2c(C)cc(C(=O)COC(=O)c3c(C)noc3C)c2C)cc1 the EC50 was 37.6 µM (inactive). CC(C)(C)NC(=O)CSc1ncnc2c1nnn2Cc1ccccc1Cl was tested, and the EC50 was 7.01 µM. CCCCCn1c(=O)c(C(=O)NCc2ccncc2)c(O)c2ccccc21 was tested, and the EC50 was 30.8 µM (inactive). For Cn1c(SCC(=O)Nc2ccc(N3CCOCC3)c(Cl)c2)nnc1-c1ccccc1, the EC50 was > 95.1 µM (inactive). For Cc1ccnc(SCC(=O)Nc2sc3c(c2C#N)CCCC3)n1, the EC50 was > 30 µM (inactive).

From PubChem BioAssay AID467 (The Scripps Research Institute Molecular Screening Center, 2006)
